The supplement of paper PMC10307832

What was measured:
Test in all cases: relative viability (nuclei count vs DMSO), 5 days (fraction); higher = more cells survive
[1] = compound: COC1=CC=C(C=C1)CN2C=CC3=C2C=C(C=C3)C(=O)NO + CS(=O)(=O)CCNCc1ccc(-c2ccc3ncnc(Nc4ccc(OCc5cccc(F)c5)c(Cl)c4)c3c2)o1 [Lapatinib] (partner 2 µM)
How it was run: (§1)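 After 5 days of treatment, lung cancer cells in 1536-well plates were fixed and stained in a single step (final 0.05% Triton X-100, 1% formaldehyde, 1 ug/ml Hoechst) and their nuclei counted on 4× images. Treatment had been applied by pin tool the day after seeding as one drug alone or as a fixed anchor-drug dose with five library-drug doses (not always all listed) in √10 steps. Relative viability is the nuclei count of treated wells divided by that of vehicle wells, and values are medians of duplicate plates.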

[2] = compound: C[C@]1(c2nc3c(C(N)=O)cccc3[nH]2)CCCN1 [Veliparib] + O=C(c1cc(Cc2n[nH]c(=O)c3ccccc23)ccc1F)N1CCN(C(=O)C2CC2)CC1 [Olaparib] (partner 8 µM)
How it was run: as §1

[3] = compound: C[C@]1(c2nc3c(C(N)=O)cccc3[nH]2)CCCN1 [Veliparib] + Cc1cc(Nc2cc(N3CCN(C)CC3)nc(Sc3ccc(NC(=O)C4CC4)cc3)n2)n[nH]1 [Tozasertib] (partner 0.1 µM)
How it was run: as §1

[4] = compound: C[C@]1(c2nc3c(C(N)=O)cccc3[nH]2)CCCN1 [Veliparib] + Cc1nc(NC(=O)N2CCC[C@H]2C(N)=O)sc1-c1ccnc(C(C)(C)C(F)(F)F)c1 [Alpelisib] (partner 2 µM)
How it was run: as §1

Cell Line	relative viability ([1]; first compound 0.253 µM)	relative viability ([1]; first compound 0.8 µM)	relative viability ([1]; first compound 2.53 µM)	relative viability ([1]; first compound 8 µM)	relative viability ([2]; first compound 0.06325 µM)	relative viability ([2]; first compound 0.2 µM)	relative viability ([2]; first compound 0.6325 µM)	relative viability ([2]; first compound 2 µM)	relative viability ([3]; first compound 0.02 µM)	relative viability ([3]; first compound 0.06325 µM)	relative viability ([3]; first compound 0.2 µM)	relative viability ([3]; first compound 0.6325 µM)	relative viability ([3]; first compound 2 µM)	relative viability ([4]; first compound 0.02 µM)	relative viability ([4]; first compound 0.06325 µM)	relative viability ([4]; first compound 0.2 µM)	relative viability ([4]; first compound 0.6325 µM)	relative viability ([4]; first compound 2 µM)	relative viability ([1]; first compound 0.08 µM)	relative viability ([2]; first compound 0.02 µM)
NCI-H1734	1.14	1.07	1.04	0.916	0.577	0.666	0.567	0.691	0.309	0.262	0.284	0.268	0.269	0.734	0.569	0.705	0.667	0.744	–	–
NCI-H1755	1.07	1	1.01	1.02	0.798	0.877	0.881	0.915	0.557	0.514	0.569	0.571	0.552	0.898	0.939	0.942	0.881	0.922	0.715	0.821
NCI-H1793	0.751	0.688	0.705	0.598	0.976	0.827	0.851	1.01	0.364	0.349	0.391	0.371	0.41	0.819	0.582	0.755	0.661	0.69	0.343	0.954
NCI-H1915	0.977	1.01	1	0.958	0.238	0.243	0.251	0.254	0.402	0.426	0.413	0.409	0.394	1.03	1.02	0.976	0.898	0.926	0.301	0.252
NCI-H1944	0.834	0.86	0.817	0.701	0.437	0.418	0.388	0.385	0.261	0.253	0.252	0.251	0.249	0.792	0.849	0.752	0.818	0.756	–	0.433
NCI-H1975	0.845	0.832	0.875	0.78	0.745	0.788	0.748	0.776	0.932	0.729	0.775	0.699	0.723	0.64	0.657	0.685	0.605	0.632	0.691	0.77
NCI-H1993	0.857	0.843	0.864	0.741	1.05	1.2	1.03	1.13	0.612	0.583	0.671	0.627	0.598	0.655	0.615	0.726	0.639	0.75	0.639	–
NCI-H2009	0.886	1.25	0.954	0.767	0.652	0.682	0.672	0.763	0.798	0.753	0.741	0.745	0.854	1.19	0.994	1.17	1.15	1.23	0.432	0.672
NCI-H2023	0.792	0.784	0.864	0.601	0.477	0.439	0.446	0.439	0.518	0.376	0.342	0.431	0.367	0.629	0.621	0.569	0.502	0.669	0.155	0.486
NCI-H2085	0.817	0.798	0.81	0.708	0.776	0.779	0.708	0.734	0.737	0.888	0.75	0.738	0.849	1.07	0.977	0.843	0.875	0.966	0.336	0.789
NCI-H2087	1	1.05	1.05	0.807	0.484	0.642	0.589	0.681	0.258	0.235	0.222	0.203	0.27	1.05	1.02	1.09	1.07	1.04	0.522	0.648
NCI-H2126	0.746	0.747	0.79	0.71	0.925	0.913	0.927	0.865	0.821	0.784	0.842	0.819	0.849	0.76	0.745	0.725	0.655	0.739	0.459	0.905
NCI-H2170	0.282	0.26	0.27	0.245	0.587	0.58	0.586	0.586	0.748	0.744	0.724	0.709	0.747	0.826	0.806	0.931	0.786	0.764	0.187	0.573
NCI-H2228	0.853	1.11	0.916	0.789	0.58	0.913	0.541	0.754	0.31	0.318	0.352	0.176	0.353	0.818	0.688	0.832	0.623	0.678	0.864	0.807
NCI-H2347	0.896	1.03	1.01	0.904	0.549	0.597	0.586	0.576	0.55	0.501	0.492	0.553	0.541	1.01	0.946	1.01	0.957	1.02	0.517	0.587
NCI-H2405	1.03	1.11	1.17	0.871	–	0.888	0.872	0.939	0.793	0.689	0.714	0.724	0.777	–	0.776	0.808	0.769	0.817	0.523	0.927
